The numbers were not newly measured in patent US20140377346A1, “BOSENTAN CONTROLLED RELEASE ORAL PREPARATION” (HANALL BIOPHARMA CO., LTD., priority 2012, published 2014), which cites them from elsewhere.

Read-outs that look alike come from different tables or passages of the source.

With `COc1ccccc1Oc1c(NS(=O)(=O)c2ccc(C(C)(C)C)cc2)nc(-c2ncccn2)nc1OCCO` [bosentan, 4-tert-butyl-N-[6-(2-hydroxy-ethoxy)-5-(2-methoxy-phenoxy)-2-(pyrimidin-2-yl)-pyrimidin-4-yl]-benzenesulfonamide], the “water needed to dissolve 0.1 mg of bosentan” value is at least 100 mL (pH 1.0), at least 50 mL (pH 5.0) and “approximately 0.3 ml” (pH 7.5).
